Measured values reported in ChEMBL document CHEMBL1149223, “Non-nucleoside inhibitors of the hepatitis C virus NS5B polymerase: discovery and preliminary SAR of benzimidazole derivatives” (Bioorg Med Chem Lett, 2004).

How the values were obtained:
[1] = molecular target: RNA-directed RNA polymerase (Hepacivirus hominis, UniProt O39930); experiment: Inhibitory activity against NS5B polymerase of hepatitis C virus
[2] = molecular target: Genome polyprotein (Human poliovirus 1 Mahoney, UniProt P03300); experiment: Inhibitory activity against polio virus RNA polymerase
[3] = test system: Hepatitis C virus; experiment: Inhibitory activity against HCV RNA replication; type: functional, organism-based, Hepacivirus hominis
[4] = molecular target: RNA-directed RNA polymerase (Hepacivirus hominis) (UniProt O39930); experiment: Inhibitory activity against NS5B polymerase of hepatitis C virus at 7 uM concentration; (Range = 13-30)
Sequence of RNA-directed RNA polymerase (Hepacivirus hominis) (O39930 1-591): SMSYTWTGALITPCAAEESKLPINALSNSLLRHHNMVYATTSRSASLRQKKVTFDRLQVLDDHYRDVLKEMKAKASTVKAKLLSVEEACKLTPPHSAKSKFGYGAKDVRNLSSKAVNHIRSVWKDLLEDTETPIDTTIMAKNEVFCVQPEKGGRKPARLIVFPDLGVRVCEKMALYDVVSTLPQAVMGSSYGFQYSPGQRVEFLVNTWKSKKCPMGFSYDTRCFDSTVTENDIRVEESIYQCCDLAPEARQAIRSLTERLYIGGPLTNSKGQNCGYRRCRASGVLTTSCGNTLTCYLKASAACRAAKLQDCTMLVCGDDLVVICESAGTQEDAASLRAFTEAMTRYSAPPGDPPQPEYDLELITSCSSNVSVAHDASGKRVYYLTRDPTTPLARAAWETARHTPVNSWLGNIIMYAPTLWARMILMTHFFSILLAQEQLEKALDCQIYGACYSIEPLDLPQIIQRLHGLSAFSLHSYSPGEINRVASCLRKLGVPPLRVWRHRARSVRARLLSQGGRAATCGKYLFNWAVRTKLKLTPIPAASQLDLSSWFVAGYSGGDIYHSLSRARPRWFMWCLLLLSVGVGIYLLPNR

Sequence of RNA-directed RNA polymerase (O39930 whole entry): as the sequence (O39930 1-591) above
Sequence of Genome polyprotein (P03300 1749-2209 limits assumed): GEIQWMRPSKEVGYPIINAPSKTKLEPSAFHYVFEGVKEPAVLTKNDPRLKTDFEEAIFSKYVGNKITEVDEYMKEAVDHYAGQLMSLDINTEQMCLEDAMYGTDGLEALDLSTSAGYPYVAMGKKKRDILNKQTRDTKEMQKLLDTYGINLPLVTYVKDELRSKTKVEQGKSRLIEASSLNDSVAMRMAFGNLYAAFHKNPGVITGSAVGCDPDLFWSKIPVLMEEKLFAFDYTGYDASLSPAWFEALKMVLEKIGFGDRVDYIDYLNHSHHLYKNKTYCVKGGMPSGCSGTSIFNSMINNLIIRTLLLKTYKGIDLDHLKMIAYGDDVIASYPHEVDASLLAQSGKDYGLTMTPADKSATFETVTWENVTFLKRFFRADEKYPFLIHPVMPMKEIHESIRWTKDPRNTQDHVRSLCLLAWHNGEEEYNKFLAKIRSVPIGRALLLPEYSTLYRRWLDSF

Row | SMILES | IC50 [1] | IC50 [2] | EC50 [3] | inhibition [4]
1 | CC1CCCCC1n1c(-c2ccccn2)nc2cc(C(=O)O)ccc21 (centres undefined) | 13 µM | > 500 µM |  | 
2 | O=C(O)c1ccc2[nH]c(-c3ccccn3)nc2c1 | > 500 µM |  |  | 
3 | CCc1ccc(-c2nc3cc(C(=O)O)ccc3n2C2CCCCC2)o1 | > 30 µM |  |  | 
4 | Cn1cccc1-c1nc2cc(C(=O)O)ccc2n1C1CCCCC1 | 1.8 µM | > 500 µM |  | 
5 | O=C(O)c1ccc2c(c1)nc(-c1ccc(C(=O)O)s1)n2C1CCCCC1 | > 30 µM |  |  | 
6 | O=C(O)c1ccc2c(c1)nc(-c1ccc(Br)o1)n2C1CCCCC1 | > 30 µM |  |  | 
7 | CC(C)=Cc1nc2cc(C(=O)O)ccc2n1C1CCCCC1 | 19 µM | > 500 µM |  | 
8 | CC1CCC(n2c(-c3ccccn3)nc3cc(C(=O)O)ccc32)CC1 (centres undefined) | 50 µM |  |  | 
9 | O=C(O)c1ccc2c(c1)nc(-c1ccccc1)n2C1CCCCC1 | 8.6 µM | 250 µM |  | 
10 | O=C(O)c1ccc2c(c1)nc(C(=O)c1ccccc1)n2C1CCCCC1 | 44 µM |  |  | 
11 | Cc1cc(C)c(-c2nc3cc(C(=O)O)ccc3n2C2CCCCC2)c(C)c1 | 120 µM |  |  | 
12 | Cc1[nH]cnc1-c1nc2cc(C(=O)O)ccc2n1C1CCCCC1 | > 30 µM |  |  | 
13 | O=C(O)c1ccc2c(c1)nc(-c1cccnc1)n2C1CCCCC1 | 28 µM | > 250 µM |  | 
14 | O=C(O)c1ccc2c(c1)nc(C1CCCCC1)n2C1CCCCC1 | 20 µM |  |  | 
15 | CCc1ccc(-c2nc3cc(C(=O)O)ccc3n2C2CCCCC2)s1 | > 30 µM |  |  | 
16 | O=C(O)c1ccc2c(c1)nc(-c1cccs1)n2C1CCCCC1 | 3.4 µM | > 250 µM | > 100 µM | 
17 | O=C(O)c1ccc2c(c1)nc(-c1ccccn1)n2C1CCCCC1 | 4.3 µM | > 500 µM | > 100 µM | 
18 | O=C(O)c1ccc2c(c1)nc(-c1ccc3ccccc3n1)n2C1CCCCC1 | > 30 µM |  |  | 
19 | O=C(O)c1ccc2c(c1)nc(-c1ccc(-c3ccc(Cl)cc3)o1)n2C1CCCCC1 | > 30 µM |  |  | 
20 | O=C(O)c1ccc2c(c1)nc(-c1ccsc1)n2C1CCCCC1 | 6.33 µM | > 250 µM | > 100 µM | 
21 | NC(=O)c1ccc2c(c1)nc(-c1ccccn1)n2C1CCCCC1 | 27 µM |  |  | 
22 | COc1ccc(CNC(=O)c2ccc3c(c2)nc(-c2ccccn2)n3C2CCCCC2)cc1OC | 7.1 µM | > 500 µM |  | 
23 | COc1ccc(CCNC(=O)c2ccc3c(c2)nc(-c2ccccn2)n3C2CCCCC2)cc1OC | 12 µM | > 500 µM |  | 
24 | CCC(CC)n1c(-c2ccccn2)nc2cc(C(=O)O)ccc21 | 139 µM |  |  | 

Row | SMILES | IC50 [1] | IC50 [2] | EC50 [3] | inhibition [4]
25 | O=C(O)c1ccc2c(c1)nc(-c1ccccn1)n2C1CCCCCC1 | 49 µM |  |  | 
26 | O=C(O)c1ccc2c(c1)nc(-c1cc3ccccc3o1)n2C1CCCCC1 | 58 µM |  |  | 
27 | Cc1c(-c2nc3cc(C(=O)O)ccc3n2C2CCCCC2)[nH]c2ccccc12 | > 30 µM |  |  | 
28 | CNC(=O)c1ccc2c(c1)nc(-c1ccccn1)n2C1CCCCC1 | 28 µM |  |  | 
29 | Cc1ccc(-c2nc3cc(C(=O)O)ccc3n2C2CCCCC2)s1 | > 30 µM |  |  | 
30 | O=C(O)c1ccc2c(c1)nc(-c1ccccn1)n2C1CCCC1 | 12 µM | > 500 µM |  | 
31 | CC(C)n1c(-c2ccccn2)nc2cc(C(=O)O)ccc21 | 408 µM |  |  | 
32 | O=C(O)c1ccc2c(c1)nc(-c1ccc(CO)o1)n2C1CCCCC1 | > 30 µM |  |  | 
33 | COc1ccc(NC(=O)c2ccc3c(c2)nc(-c2ccccn2)n3C2CCCCC2)cc1OC |  |  |  | 30%
34 | CN(C)CCCNC(=O)COc1ccc(-c2nc3cc(C(=O)O)ccc3n2C2CCCCC2)cc1 | 13 µM |  |  | 
35 | Cc1cccc(-c2nc3cc(C(=O)O)ccc3n2C2CCCCC2)n1 | > 30 µM |  |  | 
36 | O=C(O)c1ccc2c(c1)nc(-c1ccccn1)n2C1CCC1 | 76 µM |  |  | 
37 | O=C(O)c1ccc2c(c1)nc(-c1nccs1)n2C1CCCCC1 | 4.6 µM | > 500 µM |  | 
38 | O=C(O)c1ccc2c(c1)nc(-c1ccccn1)n2-c1ccccc1 | 360 µM |  |  | 
39 | O=C(O)c1ccc2c(c1)ncn2C1CCCCC1 | 186 µM |  |  | 
40 | O=C(O)c1ccc2c(c1)nc(-c1ncc[nH]1)n2C1CCCCC1 | 10 µM | > 250 µM |  | 
41 | O=C(O)c1ccc2c(c1)nc(-c1ccc(C(=O)O)o1)n2C1CCCCC1 | > 30 µM |  |  | 
42 | O=C(O)c1ccc2c(c1)nc(-c1ccoc1)n2C1CCCCC1 | 1.6 µM | > 250 µM | > 100 µM | 
43 | O=C(O)c1ccc2c(c1)nc(-c1c[nH]nc1-c1ccccc1)n2C1CCCCC1 | > 30 µM |  |  | 
44 | Cc1cc(-c2nc3cc(C(=O)O)ccc3n2C2CCCCC2)oc1C | > 30 µM |  |  | 
45 | O=C(O)c1ccc2c(c1)nc(-c1ccc[nH]1)n2C1CCCCC1 | 5.9 µM | > 500 µM |  | 
46 | O=C(O)c1ccc2c(c1)nc(-c1ccncc1)n2C1CCCCC1 | 17 µM | > 500 µM |  | 
47 | CCOC(=O)c1nc2cc(C(=O)O)ccc2n1C1CCCCC1 | 62 µM |  |  | 
48 | O=C(O)c1ccc2c(c1)nc(-c1ccco1)n2C1CCCCC1 | 3.7 µM | > 500 µM |  | 
